Data: patent US20230050653A1, “ROCK INHIBITOR AND PREPARATION METHOD THEREFOR AND USE THEREOF” (WUHAN LL SCIENCE AND TECHNOLOGY DEVELOPMENT CO., LTD., priority 2019, published 2023)

Tests used:
[1] = target: T1, ROCK1 kinase (Homo sapiens, UniProt Q13464); assay: In vitro evaluation of ROCK1 kinase selectivity (HTRF KinEASE-STK time-resolved fluorometric assay); format: biochemical
T1 construct: purchased Invitrogen
In short: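 Recombinant ROCK1 (0.4 ng/μL final) preincubated with compound (1% DMSO) for 0.5 h at room temperature in buffer with 5 mM MgCl2 and 1 mM DTT. Reaction started with ATP and biotinylated STK-substrate 2 (3.53 μM and 1 μM final), run 2 h at room temperature. HTRF detection with STK antibody-Cryptate/streptavidin-XL665 after about 1 h.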

[2] = target: T2, ROCK2 kinase (Homo sapiens, UniProt O75116); assay: In vitro evaluation of ROCK2 kinase activity (HTRF KinEASE-STK time-resolved fluorometric assay); format: biochemical
T2 construct: purchased Invitrogen PV3759
T2 sequence (O75116 whole entry): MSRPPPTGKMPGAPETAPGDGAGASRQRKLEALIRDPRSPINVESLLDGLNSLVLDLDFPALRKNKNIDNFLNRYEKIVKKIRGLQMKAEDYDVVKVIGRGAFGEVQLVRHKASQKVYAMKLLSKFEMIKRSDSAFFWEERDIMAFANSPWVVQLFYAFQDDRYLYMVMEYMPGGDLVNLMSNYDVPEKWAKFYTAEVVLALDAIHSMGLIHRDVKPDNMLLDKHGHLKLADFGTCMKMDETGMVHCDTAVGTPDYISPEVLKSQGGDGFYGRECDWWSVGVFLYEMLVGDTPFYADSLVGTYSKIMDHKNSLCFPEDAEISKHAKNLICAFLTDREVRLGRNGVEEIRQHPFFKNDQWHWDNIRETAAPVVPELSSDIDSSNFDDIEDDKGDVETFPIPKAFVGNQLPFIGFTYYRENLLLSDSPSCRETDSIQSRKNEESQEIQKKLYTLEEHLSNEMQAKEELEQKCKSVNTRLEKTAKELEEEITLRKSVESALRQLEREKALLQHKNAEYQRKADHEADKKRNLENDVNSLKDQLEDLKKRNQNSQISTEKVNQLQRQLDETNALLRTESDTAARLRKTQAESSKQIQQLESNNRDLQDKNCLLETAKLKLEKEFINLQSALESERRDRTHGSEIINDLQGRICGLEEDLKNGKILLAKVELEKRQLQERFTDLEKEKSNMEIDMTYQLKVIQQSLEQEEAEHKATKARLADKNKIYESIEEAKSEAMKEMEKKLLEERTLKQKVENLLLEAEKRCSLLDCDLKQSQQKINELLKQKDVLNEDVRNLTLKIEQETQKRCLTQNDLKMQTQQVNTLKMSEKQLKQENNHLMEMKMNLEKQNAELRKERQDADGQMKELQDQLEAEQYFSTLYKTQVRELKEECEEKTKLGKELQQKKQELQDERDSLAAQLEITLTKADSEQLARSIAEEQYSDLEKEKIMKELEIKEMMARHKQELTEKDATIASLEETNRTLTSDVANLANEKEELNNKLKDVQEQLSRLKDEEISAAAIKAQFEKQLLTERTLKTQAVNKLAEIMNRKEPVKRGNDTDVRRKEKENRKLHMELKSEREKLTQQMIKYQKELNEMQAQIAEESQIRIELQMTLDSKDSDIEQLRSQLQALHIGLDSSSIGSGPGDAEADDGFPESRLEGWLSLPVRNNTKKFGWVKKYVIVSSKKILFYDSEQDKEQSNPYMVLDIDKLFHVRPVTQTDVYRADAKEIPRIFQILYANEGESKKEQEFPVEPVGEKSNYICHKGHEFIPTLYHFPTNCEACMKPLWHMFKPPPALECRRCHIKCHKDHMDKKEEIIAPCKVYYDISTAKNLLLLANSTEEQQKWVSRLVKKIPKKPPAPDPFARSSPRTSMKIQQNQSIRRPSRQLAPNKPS
In short: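 ROCK2 (0.4 ng/μL final) was preincubated with compound (1% DMSO) for 0.5 h at room temperature in kinase buffer with 5 mM MgCl2, 1 mM DTT. Reaction with ATP 6.739 μM and STK-substrate 2-biotin 1 μM ran 2 h at room temperature; HTRF read-out after ~1 h detection.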

[3] = In vivo pharmacokinetic study in mice; conditions: mouse, plasma
From the text: In Vivo Pharmacokinetic Study of Compounds Disclosed Herein in Mice SPF-grade mice (SPF (Beijing) Biotechnology Co., Ltd.) were fasted overnight (without water deprivation) after adaptive feeding, and then received the compound of the present disclosure by intragastrical administration and bolus injection at tail vein. After administration, plasma of mice was collected at specific time points, and the concentration of the compound in the plasma was detected by LC-MS/MS (AB SCIEX Qtrap4500). The PK parameters of the compounds were statistically analyzed and calculated (WinNonlin V5.2, Pharsight) to show the pharmacokinetic properties of the compounds in mice.

[4] = In vitro cytotoxicity assay in HepG2 cells, CCK-8 method; conditions: human
Procedure: (§1) In vitro cytotoxicity assay for the compounds disclosed herein was performed in HepG2 cells using the CCK-8 method. HepG2 cells (Beina Bio) in the logarithmic growth phase were collected, the concentration of cell suspension was adjusted, and then the cells were plated on a 96-well cell culture plate at 50,000 cells/well. The cells were then incubated overnight in a cell incubator (5%, 37° C.), and after 80-90% cell confluence was achieved, test compound at each concentration gradient or vehicle (DMSO) was added after medium change. The resulting mixture was incubated in the cell incubator (5%, 37° C.) for 48 h. After the treatment, the medium in the plate was discarded. The plate was washed twice with PBS, added with CCK-8 working solution (Beyotime) at 100 μL per well, and then incubated at 37° C. for 1.5 h in the dark. Absorbance at OD450 nm was measured for each well on a microplate reader, and CC50 value of each compound was analyzed and calculated.

[5] = tested on: HepG2 cells
Procedure: as §1

T1 sequence (Q13464 whole entry): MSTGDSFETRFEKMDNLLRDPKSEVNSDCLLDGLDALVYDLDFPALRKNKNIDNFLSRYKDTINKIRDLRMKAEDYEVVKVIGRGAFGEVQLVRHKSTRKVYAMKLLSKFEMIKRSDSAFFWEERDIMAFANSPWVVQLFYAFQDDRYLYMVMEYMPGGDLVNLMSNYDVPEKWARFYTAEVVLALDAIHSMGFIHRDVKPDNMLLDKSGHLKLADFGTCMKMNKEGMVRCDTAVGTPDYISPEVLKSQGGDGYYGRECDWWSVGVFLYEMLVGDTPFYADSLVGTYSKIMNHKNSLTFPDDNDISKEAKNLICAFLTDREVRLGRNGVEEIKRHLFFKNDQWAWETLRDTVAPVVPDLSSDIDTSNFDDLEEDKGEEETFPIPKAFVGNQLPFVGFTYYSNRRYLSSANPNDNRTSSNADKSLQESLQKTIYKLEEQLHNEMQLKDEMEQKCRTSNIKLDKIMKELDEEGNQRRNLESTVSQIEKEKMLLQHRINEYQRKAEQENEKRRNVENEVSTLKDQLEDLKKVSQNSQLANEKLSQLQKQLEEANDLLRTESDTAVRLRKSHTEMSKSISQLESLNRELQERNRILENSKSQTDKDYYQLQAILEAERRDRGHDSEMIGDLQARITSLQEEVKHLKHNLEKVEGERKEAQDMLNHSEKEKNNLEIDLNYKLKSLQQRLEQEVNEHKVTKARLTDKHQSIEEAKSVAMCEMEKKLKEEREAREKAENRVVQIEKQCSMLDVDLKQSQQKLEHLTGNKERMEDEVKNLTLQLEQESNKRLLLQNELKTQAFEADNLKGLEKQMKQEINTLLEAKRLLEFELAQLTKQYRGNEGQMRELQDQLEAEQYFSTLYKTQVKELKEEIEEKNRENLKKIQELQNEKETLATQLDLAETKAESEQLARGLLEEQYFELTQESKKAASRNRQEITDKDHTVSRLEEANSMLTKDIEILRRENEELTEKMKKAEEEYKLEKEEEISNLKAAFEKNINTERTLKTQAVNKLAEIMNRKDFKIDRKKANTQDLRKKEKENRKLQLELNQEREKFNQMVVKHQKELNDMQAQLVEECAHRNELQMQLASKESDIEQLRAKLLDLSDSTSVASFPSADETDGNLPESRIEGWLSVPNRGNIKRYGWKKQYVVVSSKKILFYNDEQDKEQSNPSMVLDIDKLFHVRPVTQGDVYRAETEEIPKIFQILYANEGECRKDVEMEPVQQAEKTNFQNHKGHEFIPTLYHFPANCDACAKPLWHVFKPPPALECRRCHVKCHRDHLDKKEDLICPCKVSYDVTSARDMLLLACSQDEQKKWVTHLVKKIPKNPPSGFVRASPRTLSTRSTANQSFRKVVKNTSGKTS

Row | SMILES | IC50 [1] [nM] | IC50 [2] [nM] | bioavailability ([3]; 1 mg/kg Po vs Iv) [%] | AUC(0-t) ([3]; Iv, 1 mg/kg) [ng·h/mL] | Cmax ([3]; Iv, 1 mg/kg) [ng/mL] | AUC(0-t) ([3]; Po, 1 mg/kg) [ng·h/mL] | Cmax ([3]; Po, 1 mg/kg) [ng/mL] | CC50 at 48 h [4] [nM] | also measured
1 | COc1cc(F)cc(CNC(=O)N2CCc3cc(-c4cn[nH]c4)ccc32)c1 [Compound T202, N-(3-fluoro-5-methoxybenzyl)-5-(1H-pyrazol-4-yl)indoline-1-carboxamide] | ≤ 50 | ≤ 50 |  |  |  |  |  | > 50000 | bioavailability ([3]; 3 mg/kg Po vs Iv): 90.3%; AUC(0-t) ([3]; Iv, 3 mg/kg): 1740 ng·h/mL; Cmax ([3]; Iv, 3 mg/kg): 2340 ng/mL; AUC(0-t) ([3]; Po, 3 mg/kg): 1570 ng·h/mL; Cmax ([3]; Po, 3 mg/kg): 807 ng/mL
2 | COc1cc(F)cc(C(=O)NC(=O)c2cn(C)c3cc(-c4cn[nH]c4)ccc23)c1 [Compound T203, 1-methyl-6-(1H-pyrazol-4-yl)-1H-indole-3-carboxylic acid-3-fluoro-5-methoxy-benzoylamide] |  |  |  |  |  |  |  |  | CC50 [5]: > 50000 nM
3 | O=C(NC1CCCC1)c1cccc([C@H](CO)NC(=O)N2CCc3cc(-c4cn[nH]c4)c(F)cc32)c1 [Compound T356-R, (R)-N-(1-(3-(cyclopentylcarbamoyl)phenyl)-2-hydroxyethyl)-6-fluoro-5-(1H-pyrazol-4-yl)indoline-1-carboxamide] | 50 to 500 | 50 to 500 |  |  |  |  |  | > 200000 | 
4 | O=C(NCc1cccc(OCC2CC2)c1)N1CCc2cc(-c3c[nH]nc3F)c(F)cc21 [Compound T380, N-(3-(cyclopropylmethoxy)benzyl)-6-fluoro-5-(3-fluoro-1H-pyrazol-4-yl)indoline-1-carboxamide] | 50 to 500 | ≤ 50 |  |  |  |  |  | 35300 | 
5 | COc1cc(F)cc(CNC(=O)N2CCCc3cc(-c4cn[nH]c4)ccc32)c1 [Compound T204, N-(3-fluoro-5-methoxybenzyl)-6-(1H-pyrazol-4-yl)-3,4-dihydroquinoline-1(2H)-carboxamide] | 50 to 500 | ≤ 50 |  |  |  |  |  | > 50000 | 
6 | COc1cccc([C@@H](CO)NC(=O)N2CCc3cc(-c4cn[nH]c4)c(F)cc32)c1 [Compound T346] | ≤ 50 | ≤ 50 |  |  |  |  |  | 45000 | 

More lines, main results first:

Row | IC50 [1] [nM] | IC50 [2] [nM] | bioavailability ([3]; 1 mg/kg Po vs Iv) [%] | AUC(0-t) ([3]; Iv, 1 mg/kg) [ng·h/mL] | Cmax ([3]; Iv, 1 mg/kg) [ng/mL] | AUC(0-t) ([3]; Po, 1 mg/kg) [ng·h/mL] | Cmax ([3]; Po, 1 mg/kg) [ng/mL] | SMILES | CC50 at 48 h [4] [nM] | also measured
7 | ≤ 50 | ≤ 50 | 71.1 | 1090 | 811 | 775 | 352 | COc1cccc(CNC(=O)N2CCc3cc(-c4c[nH]nc4F)c(F)cc32)c1 [Compound T357, 6-fluoro-5-(3-fluoro-1H-pyrazol-4-yl)-N-(3-methoxybenzyl)indoline-1-carboxamide] | 96000 | 
8 | ≤ 50 | ≤ 50 | 82.8 | 753 | 492 | 623 | 188 | O=C(NCc1cc(F)cc(F)c1)N1CCc2cc(-c3cn[nH]c3F)c(F)cc21 [Compound T387, N-(3,5-difluorobenzyl)-6-fluoro-5-(5-fluoro-1H-pyrazol-4-yl)indoline-1-carboxamide] | > 100000 | 
9 | 50 to 500 | ≤ 50 | 49.1 | 1260 | 977 | 618 | 322 | COc1cccc(CNC(=O)N2CCc3cc(-c4c[nH]nc4N)c(F)cc32)c1 [Compound T345, 5-(3-amino-1H-pyrazol-4-yl)-6-fluoro-N-(3-methoxybenzyl)indoline-1-carboxamide] | 40800 | 
10 | 50 to 500 | ≤ 50 |  |  |  |  |  | COc1cc(F)cc(CNC(=O)N2CCc3cc(-c4c[nH]nc4N)c(F)cc32)c1 [Compound T385, 5-(3-amino-1H-pyrazol-4-yl)-6-fluoro-N-(3-fluoro-5-methoxybenzyl)indoline-1-carboxamide] | > 100000 | 
